From publication PMC12116657, “A “proto” type galectin expressed in striped bass (Morone saxatilis) tissues is released to epidermal mucus and binds to bacterial and mucus glycans” (Frontiers in Cellular and Infection Microbiology, 2025)

Key:
[1] = tested on: proto type galectin from toad (Bufo arenarum); details: relative to Galβ1,4Glc = 1.0; comparison values, reference not given; cited from earlier work
[2] = tested on: proto type galectin from domestic cow (Bos taurus); details: relative to Galβ1,4Glc = 1.0; comparison values, reference not given; cited from earlier work
[3] = tested on: Msgal1-L1; test: Solid-phase binding-inhibition assay: rMsgal1-L1-HRP binding to asialofetuin (ASF) inhibited by carbohydrates; design: species or system Morone saxatilis; details: for Relative inhibitory activity, Morone saxatilis: I50 normalized to Galβ1,4Glc (lactose) = 1.0, rMsgal1-L1-HRP binding to ASF, pH 8.0, 23°C, 10 mM ME
Experimental: Binding of the rMsgal1-L1–HRP to asialofetuin (ASF) and its inhibition by carbohydrates were assessed and optimized as reported elsewhere ([Ahmed et al., 1996], [2002]). […] Thus, the inhibition of galectin binding to immobilized ASF by mono- and oligosaccharides is a standard system to analyze the fine specificity of novel galectins. Briefly, ASF (0.5 μg/100 μl/well) in 0.1 M Na2CO3/0.02% NaN3 (pH 9.6) was adsorbed onto the plastic wells (37°C, 3 h) and the bound glycoprotein was fixed with 2% formaldehyde (37°C, 30 min). The plates were washed three times with PBS (azide-free)/0.05% Tween 20, and incubated with the Msgal1-L1–HRP conjugate (10 ng/100 μl/well for binding assays) or with a pre-incubated mixture of equal volume of conjugate and varying concentrations of test ligands (for binding-inhibition assays). After incubation (4°C, 1 h) the plates were washed with ice-cold azide-free PBS-Tween 20 buffer and the bound peroxidase activity was assayed with 2,2’-azino-bis(3-ethylbenzothiazoline-6-sulfonic acid) (ABTS) as previously described ([Ahmed et al., 1996]).
The carbohydrate-binding specificity of Msgal1-L1 was determined by analyzing the binding of the rMsgal1-L1–HRP conjugate to ASF in the presence of several saccharides in a solid-phase assay under the optimal conditions of pH and temperature established above (pH 8.0; 23°C) and under a reducing environment (10 mM ME) ([Ahmed et al., 1996], [2002]). For each test saccharide, a complete inhibition curve was obtained, and the molar concentrations that inhibited the binding of the lectin conjugate to ASF by 50% (I 50) were calculated and normalized with respect to Galβ1,4Glc (lactose), which was included in each plate as a standard ( Table 2 ). The binding-inhibition profile for Msgal1-L1 was generally similar to those for proto type galectins from zebrafish (D. rerio), toad (B. arenarum), and domestic cow (Bos taurus). […] The presence of a fucose unit linked in α1,2 to the non-reducing Gal moiety decreased the inhibitory effectiveness in about one-third as compared to lactose, most likely by steric hindrance of the protein–Gal interaction. […] A hydrophobic phenyl group linked to the reducing end of Galβ1,3GlcNAc strengthened the Msgal1-L1 interaction with the ligand 6.5-fold.

[4] = tested on: proto type galectin from zebrafish (Danio rerio); details: relative to Galβ1,4Glc = 1.0; comparison values, reference not given; cited from earlier work
[5] = tested on: striped bass epidermal mucus; test: Dot blot binding to untreated and glycosidase-treated epidermal mucus fractions; design: species or system Morone saxatilis; details: pre-incubation of rMsgal1-L1 with lactose 200 mM; inhibition not complete
Experimental: The crude epidermal mucus was cleared of particulate matter and fractionated by centrifugation at 17,000 rpm for 45 min at 4°C, resulting in three distinct layers: a clear upper layer of lower viscosity, an opaque more viscous layer immediately below that likely contain the highest concentration of mucins, and a loose pellet of solid cellular debris. Fractions obtained from multiple centrifugations were separated and corresponding layers were pooled as “clear upper layer pool” and “viscous intermediate layer pool.”
Pooled mucus layers were treated with N-glycosidase F [peptide-N ^4-(acetyl-β-glucosaminyl) asparagine amidase], O-glycosidase (O-glycopeptide endo-D-galactosyl-N-acetyl-α-galactosamino hydrolase, Roche), endoglycosidase H, or all three enzymes combined. […]
Aliquots (100 μL/well) of untreated or glycosidase-treated epidermal mucus pooled layers were dot-blotted onto PVDF membranes using a Bio-Dot Microfiltration Apparatus (Bio-Rad) under vacuum in replicate wells. […] For detection of endogenous ligands for Msgal1-L1, the membranes were blocked in 5% BSA/PBS, probing with rMsgal1-L1–HRP with or without lactose (200 mM), and detected with Stable-DAB (Invitrogen).

Compound	Relative inhibitory activity, Bufo arenarum [1]	Relative inhibitory activity, Bos taurus [2]	Relative inhibitory activity, Morone saxatilis [3]	Relative inhibitory activity, Danio rerio [4]	Fold less effective than lactose as inhibitor ([3]; Msgal1-L1 binding to ASF)	Relative inhibitory activity, Morone saxatilis ([3]; listed as Thiodigalactoside)	Inhibition of Msgal1-L1 binding to mucus layers [5]	Relative inhibitory activity, Morone saxatilis ([3]; listed as Galβ1,4GlcNAc)	Inhibitory effect (in words) ([3]; Msgal1-L1 binding inhibition)
CO[C@H]1[C@H](O[C@H]2[C@H](O)[C@@H](O)C(O)O[C@@H]2CO)O[C@H](CO)[C@H](O)[C@@H]1O (stereo partly shown) [MeO-2Galβ1,4Glc]	2.5	4.08	3.33	2.9	–	–	–	–	–
CO[C@H]1O[C@H](CO)[C@H](O)[C@H](O)[C@H]1O [Galα-OMe]	0.03	0.01	0.027	0.006	–	–	–	–	–
CC(=O)N[C@H]1[C@@H](O[C@H]2[C@@H](O)[C@@H](CO)O[C@@H](O)[C@@H]2O[C@@H]2O[C@@H](C)[C@@H](O)[C@@H](O)[C@@H]2O)O[C@H](CO)[C@H](O)[C@@H]1O [A-trisaccharide]	–	–	–	–	threefold less effective	–	–	–	–
Galβ1,6GlcNAc	0.83	0.12	0.225	0.03	–	–	–	–	–
OC[C@H]1O[C@@H](S[C@@H]2O[C@H](CO)[C@H](O)[C@H](O)[C@H]2O)[C@H](O)[C@@H](O)[C@H]1O [Galβ1S1βGal, Thiodigalactoside]	3.9	9.0	10.0	12.2	–	approximately 10	–	–	–
Nc1ccc(O[C@@H]2O[C@H](CO)[C@@H](O[C@@H]3O[C@H](CO)[C@H](O)[C@H](O)[C@H]3O)[C@H](O)[C@H]2O)cc1 [Galβ1,4Glcβ-OPhNH2 (p)]	1.71	1.48	2	1.4	–	–	–	–	–
CC(=O)N[C@H]1[C@H](Oc2ccc([N+](=O)[O-])cc2)O[C@H](CO)[C@@H](O)[C@@H]1O[C@@H]1O[C@H](CO)[C@H](O)[C@H](O)[C@H]1O [Galβ1-3GlcNacβ-OPhNO2 (p)]	1.78	4.5	6.5	2.3	–	–	–	–	–
O=C[C@H](O)[C@@H](O)[C@@H](O)[C@H](O)CO [Gal, D-galactose]	0.005	0.0079	0.007	0.004	–	–	–	–	–
CC(=O)N[C@H]1[C@H](O[C@H]2[C@H](O)[C@@H](CO)OC(O)[C@@H]2O)O[C@H](CO)[C@H](O)[C@@H]1O (stereo partly shown) [GalNacβ1,3Glc]	4.45	–	2.8	–	–	–	–	–	–
Fucα1,2Galβ1,4Glc	0.17	0.36	0.33	0.35	–	–	–	–	–
OC[C@H]1O[C@@H](O[C@H]2[C@H](O)[C@@H](O)[C@H](O)O[C@@H]2CO)[C@H](O)[C@@H](O)[C@H]1O [Galβ1,4Glc, lactose]	1.0	1.0	1.0	1.0	–	–	substantially reduced	–	–
OC[C@H]1O[C@@H](O[C@H]2[C@@H](O)COC(O)[C@@H]2O)[C@H](O)[C@@H](O)[C@H]1O (stereo partly shown) [Galβ1,3Ara]	1.28	2.56	4.10	2.1	–	–	–	–	–
CO[C@@H]1O[C@H](CO)[C@H](O)[C@H](O)[C@H]1O [Galβ-OMe]	0.006	0.0044	0.009	0.004	–	–	–	–	–
OC[C@H]1O[C@@H](O[C@@H]2[C@@H](CO)O[C@](O)(CO)[C@H]2O)[C@H](O)[C@@H](O)[C@H]1O [Galβ1,4Fru f]	1.0	–	1.9	1.0	–	–	–	–	–
CC(=O)N[C@H]1C(O)O[C@H](CO)[C@@H](O[C@@H]2O[C@H](CO)[C@H](O)[C@H](O)[C@H]2O)[C@@H]1O (stereo partly shown) [Galβ1,4GlcNac, N-acetyllactosamine]	3.75	5.54	3.07	7.9	–	–	–	approximately 3	–
CO[C@@H]1O[C@H](CO)[C@@H](O[C@@H]2O[C@H](CO)[C@H](O)[C@H](O)[C@H]2O)[C@H](O)[C@H]1O [Galβ1,4Glcβ(1-0)Me]	2.14	1.33	1.74	2.9	–	–	–	–	–
CC(=O)N[C@H]1C(O)O[C@H](CO)[C@H](O)[C@@H]1OC1O[C@H](CO)[C@H](O)[C@H](O)[C@H]1O (stereo partly shown) [Gal1,3GalNAc]	–	–	–	–	–	–	–	–	negligible
OC[C@H]1O[C@@H](O[C@H]2[C@H](O)[C@H](O)C(O)O[C@@H]2CO)[C@H](O)[C@@H](O)[C@H]1O (stereo partly shown) [Galβ1,4Man]	2.5	2.34	1.74	1.5	–	–	–	–	–
OC[C@H]1O[C@H](OCC2O[C@@H](O)[C@H](O)[C@@H](O)[C@@H]2O)[C@H](O)[C@@H](O)[C@H]1O (stereo partly shown) [Galα1,6Glc]	0.0075	0.0053	0.019	0.004	–	–	–	–	–
